Data published in publication PMC10779086, “3-O-Methyltolcapone and Its Lipophilic Analogues Are Potent Inhibitors of Transthyretin Amyloidogenesis with High Permeability and Low Toxicity” (International Journal of Molecular Sciences, 2023).
Where “and” joins values, the source holds several entries; their conditions need not be identical. Identical values can stand only once.

Experiments:
[1] = Blood-brain barrier permeability (PAMPA-BBB); assay type: in vitro ADME; settings: for Papp: PBS pH 7.4, read-out: BBB-Pe; for CNS Class: classified by Pe; for permeability (Pe) times higher compared to tolcapone: relative to tolcapone
Procedure: The assay combines solubility and a non-cell-based Blood Brain Barrier permeability assay (Parallel Artificial Membrane Permeation Assay; PAMPA-BBB) into a single workflow in which a portion of the filtrate from the Solubility filter plate is added to the donor compartment of the MultiScreen filter plate for the PAMPA-BBB analysis. […] Solutions were filtered into a 96-well collection plate using vacuum filtration and then analysed by UV/Vis spectroscopy. The relative solubility was then calculated using the sum of the recorded values as compared to a standard calibration curve. […] PAMPA-BBB determination was carried out in a 96-well MultiScreen Permeability plate and the ability of a compound to diffuse from a Donor to an Acceptor compartment separated by a Porcine Brain Lipid Extract (PBLE) dissolved in dodecane (20 mg/mL) layer on a PVDF membrane support was measured. The assay was performed in duplicate in PBS at pH 7.4 and the analysis is carried out by UV/Vis spectroscopy.
The compounds are classified into 2 types: CNS+ compounds that can cross the BBB and CNS- compounds that cannot according to the Pe values (BBB−, Pe < 2 × 10^−6 cm/s; BBB +/−, 2 × 10^−6 cm/s < Pe < 4 × 10^−6 cm/s; BBB+, Pe > 4 × 10^−6 cm/s).
Membrane retention is also evaluated according to Equation (1), (1) 1−Rm=CAccVAcc+CDonorVDonor/Sol×VDonor where Rm is the membrane retention factor. 1 − Rm between 1.2 and 0.8 is considered fully acceptable for the reliability of the results.

TTR = TTR (Homo sapiens, UniProt P02766); experiment: TTR tetramer stability in diluted human plasma with urea, by immunoblotting; assay type: biochemical; parameters: from tissue; host or cells: human plasma; settings: 4 M urea, versus DMSO control
Procedure: The TTR tetramer stability assay in the presence of urea and TTR ligands was performed according to a previously reported Western Blot procedure, with some modifications as follows. Aliquots of human plasma were diluted 8-fold in sodium phosphate buffer (NaP 40 mM, NaCl 150 mM pH 7.4) supplemented with 2 µM or 20 µM of each ligand. A plasma aliquot supplemented with DMSO was used as a negative control. After 2 h of incubation at 20 °C, an equal volume of 8 M urea in sodium phosphate buffer was added to obtain a final 4 M urea concentration and final ligand concentration of 1 µM or 10 µM. Incubation was prolonged for 18 h at 20 °C, followed by non-denaturing SDS-PAGE using Tris-Glycine buffers containing 0.025% of SDS in the running buffer and 0.2% of SDS in the Laemmli buffer. […] Blotting was accomplished with a Trans-Blot SD transfer apparatus (BIORAD), followed by incubation of nitrocellulose membranes with blocking buffer containing 5% skim milk overnight at 25 °C. Immunodetection of TTR monomers was performed by employing rabbit anti-human TTR polyclonal antibody (Dako) as a primary and goat anti-rabbit antibody labelled with DyLight 680 ([…]) as a secondary. Western Blot images were recorded by using ChemiDoc MP imaging system (BIORAD) and analysed with Image Lab software v. 5.1 (BIORAD). The experiment was performed in triplicate, and ligands stabilisation capability was evaluated as the relative intensity of the TTR monomer in each condition in comparison to the negative control. Statistical analyses by means of ANOVA and graphic representations were performed with GraphPad Prism.

[2] = plasma; cited from earlier work
Caco-2 cells = experiment: Caco-2 intestinal permeability; assay type: in vitro ADME, human; settings: A→B, relative to tolcapone
Procedure: Caco-2 cells (cod. HTB-37) were bought from ATCC (American Type Culture Collection, Rockville, MD, USA). Caco-2 cells were cultured for 21 days on a 24 trans-well plate to reach the right confluence and differentiate until the formation of the intestinal epithelium mimetic monolayer. The test substance permeability was measured in both directions (apical to basolateral [A→B] and basolateral to apical [B→A]) across the cell monolayer. The assay was carried out in HBSS transport medium at pH 7.4. Test substance at single concentration (10 μM) was tested in duplicate at one time point (60 min). Monolayer integrity of Caco-2 cells was evaluated by TEER measurements during the experiment and by Lucifer Yellow test after the incubation with the test compound. The concentrations of the test substance and/or reference controls were measured by LC-MS/MS.
When the inhibitor leads the efflux ratio to a significant reduction (>50%) or to unity, the test compound is classified as a probable substrate of that efflux transporter. As control, the modulation of the efflux ratio of a reference known substrate (Digoxin) was evaluated with or without the respectively inhibitors in every experiment. […] In parallel, mass balance (%) of recovered test substance was also determined. […] Outside these ranges the permeability data is not reliable.

1-Rm (membrane retention) [1] | Papp [1] [×10⁻⁶ cm/s] | CNS Class [1] | permeability (Pe) times higher compared to tolcapone [1] [times] | relative abundance of TTR monomer (TTR; ligand 1 µM) | relative abundance of TTR monomer (TTR; ligand 10 µM) [%] | melting point [°C] | increase of permeability Papp value (A→B) compared to tolcapone (Caco-2 cells) [fold] | SMILES | half-life [2] [h]
0.9 | 14.4 | CNS+ (BBB+, Pe > 4 × 10^−6 cm/s) | 2.5 | 14% and 14.1 ± 1.8% | 9.4 ± 1.5 | – | – | COc1cc(C(=O)c2ccc(C)cc2)cc([N+](=O)[O-])c1O [3-OMT, 3-O-methyltolcapone] | 40.9
0.9 | 15.3 | CNS+ (BBB+, Pe > 4 × 10^−6 cm/s) | 2.5 | 17% and 17.2 ± 2.1% | 9.5 ± 2.8 | 144 to 145 | 2.5 | COc1cc(C(=O)c2cc(C)cc(C)c2)cc([N+](=O)[O-])c1O [Compound 1, (4-Hydroxy-3-methoxy-5-nitrophenyl)-1-(3,5-dimethylphenyl)methanone] | –
1.0 | 13.5 | CNS+ (BBB+, Pe > 4 × 10^−6 cm/s) | 2.5 | 7% and 7.5 ± 0.4% | 9.2 ± 1.5 | 126 to 127 | 2.5 | COc1cc(C(=O)c2ccc(C)cc2C)cc([N+](=O)[O-])c1O [Compound 2, (4-Hydroxy-3-methoxy-5-nitrophenyl)-1-(2,4-dimethylphenyl)methanone] | –
